A short description of series [1]: Drug metabolism in human MDA-MB-231 cells assessed as increase of free amonafide in cell at 25 uM measured after 2 hrs by fluorescence based microscopic assay. In kind it is ADME. The following applies: mda-mb-231, 2 h.
Series [2] is described as follows: Drug metabolism in human MDA-MB-231 cells xenografted in athymic Balb/c mouse assessed as increase of free amonafide in tumor at 10 mg/kg, ip measured after 120 hrs by fluorescence based microscopic assay. The series is classed as ADME, organism-based. The following applies: in vivo. For orientation: Xenograft models place foreign cells or tissue in a host animal.

For series [3], the system named is MDA-MB-238. In words: Inhibition of DNA Topoisomerase-2 in human […] cells assessed as generation of DNA double strand breaks by measuring gamma-H2AX at 2 uM incubated for 24 hrs followed by drug washout and measured after 24 hrs by immunofluorescence assay. The series is classed as cell-based.
For series [4], the system named is MDA-MB-238. In words: Inhibition of DNA Topoisomerase-2 in human […] cells assessed as generation of DNA double strand breaks measuring gamma-H2AX at 2 uM incubated for 24 hrs followed by drug washout and measured after 96 hrs by immunofluorescence assay. In kind it is cell-based.
Series [5] relates to A 172. In words: Cytotoxicity against human A 172 cells assessed as cell viability measured after 96 hrs by XTT assay. In kind it is functional, cell-based. The following applies: A 172, 96 h.
Series [6] has as its system WM 266-4. In words: Cytotoxicity against human WM 266-4 cells assessed as cell viability measured after 96 hrs by XTT assay. The series is classed as functional, cell-based. The following applies: WM 266-4, 96 h. In general terms: Formazan colour is commonly taken as a measure of viable cells.
Series [7] deals with NCI-H1299. In words: Cytotoxicity against human NCI-H1299 cells assessed as cell viability measured after 96 hrs by XTT assay. The following applies: NCI-H1299, 96 h. In kind it is functional, cell-based.
The subject of series [8] is MDA-MB-238. In words: Cytotoxicity against human […] cells assessed as cell viability measured after 96 hrs by XTT assay. The series is classed as functional, cell-based.
In series [9] the test system is MDA-MB-238. In words: Antitumour activity against human […] cells xenografted in athymic nude-Foxn 1nu mouse assessed as inhibition of tumour growth at 1.9 mg/kg, ip measured after 5 weeks. In kind it is functional, organism-based.
For series [10], the system named is MDA-MB-238. In words: Antitumour activity against human […] cells xenografted in athymic nude-Foxn 1nu mouse assessed as inhibition of tumour growth at 3.8 mg/kg, ip measured after 5 weeks. In kind it is functional, organism-based.
Series [11] has as its system DNA. In words: Induction of DNA methylation in human HCT-116 cells assessed as reduction of MGMT expression at 200 uM measured after 48 hrs by Western blot assay relative to control. Details: scale not given: the % may be the effect or the level left. In kind it is functional, cell-based. (In general: In western blotting, separated proteins are transferred to a membrane and probed.)

Series [12] deals with DNA. In words: Induction of DNA methylation in human HCT-116 cells assessed as reduction of MGMT expression at 400 uM measured after 48 hrs by Western blot assay relative to control. In kind it is functional, cell-based. The arrangement: scale not given: the % may be the effect or the level left.
The test system of series [13] is MDA-MB-238. In words: Inhibition of DNA Topoisomerase-2 in human […] cells assessed as generation of DNA double strand breaks measuring gamma-H2AX at incubated for 24 hrs followed by drug washout and measured after 24 to 96 hrs by immunofluorescence assay. In kind it is cell-based.

This note sets out measurements from ChEMBL document CHEMBL4828759, “Targeted methylation facilitates DNA double strand breaks and enhances cancer suppression: A DNA intercalating/methylating dual-action chimera Amonafidazene” (Eur J Med Chem, 2021).

Each structure is given as a SMILES string. pIC50: −log10 of the molar value. Active and inactive are the calls of the source. The calls are words filed in the database; no cut-off is given here.

As to `COC(=O)N(C)/N=N/c1ccc(COC(=O)Nc2cc3c4c(cccc4c2)C(=O)N(CCN(C)C)C3=O)cc1`, the Drug metabolism result in series [1] and in series [2] was “Metabolite_Detected” each time. In addition, the inhibition result in series [3] and in series [4] was “Active” each time. Further, the pIC50 in series [5] is 5.56; in [6], 5.42; in series [7], 5.75; in series [8], 5.52. Besides, the outcome in series [9] and in series [10] was Active.
Regarding `COC(=O)N(C)/N=N/c1ccc(COC(=O)Nc2ccc3c4c(cccc24)C(=O)N(CCN(C)C)C3=O)cc1`, the pIC50 is 5.13 in [5], 5.31 in series [6], 5.44 in series [7] and 5.20 in [8].
`COC(=O)N(C)/N=N/c1ccc(CO)cc1`: the Activity in series [11] is 75%; in [12] it was 48%. In addition, the pIC50 was under 4.40 in series [5], under 4.00 in series [6], under 4.00 in series [7] and under 4.00 in series [8].
With `Cn1nnc2c(C(N)=O)ncn2c1=O` [TEMOZOLOMIDE], the Activity in series [11] was 93%; in [12], 57%. Also, the inhibition entry in [13] was “inactive”. For the same compound, the pIC50 in series [5] was under 4.40; in [6], under 4.00; in series [7], under 4.00; in series [8], under 4.00.
In the case of `CN(C)CCN1C(=O)c2cccc3cc(N)cc(c23)C1=O` [AMONAFIDE], the inhibition entry in series [3] and in series [4] was “Active” in each case. For the same compound, the pIC50 is 4.62 in series [5], 5.16 in series [6], 5.05 in [7] and 4.62 in series [8]. Further, the result in [9] was Active.

The term pIC50 denotes the negative decadic logarithm of the IC50, by convention in mol/L.
